Experimental data published in patent US4788206A, “Pentadieneamides” (Hoffmann-La Roche Inc., priority 1987, dated 1988).
Like-named read-outs stand apart in the source and are kept apart here.

Key:
[1] = target: T1, PAF Binding, dog platelets (Canis lupus familiaris, UniProt A0A8I3NSH0); experiment: PAF Binding Assay (inhibition of 3H-PAF binding to washed dog platelets)
T1 construct: Washed platelets were prepared by resuspending the platelet pellet once with PBS containing 1 mM EDTA; from tissue; host or cells: washed platelets from dog blood
T1 sequence (A0A8I3NSH0 1-343): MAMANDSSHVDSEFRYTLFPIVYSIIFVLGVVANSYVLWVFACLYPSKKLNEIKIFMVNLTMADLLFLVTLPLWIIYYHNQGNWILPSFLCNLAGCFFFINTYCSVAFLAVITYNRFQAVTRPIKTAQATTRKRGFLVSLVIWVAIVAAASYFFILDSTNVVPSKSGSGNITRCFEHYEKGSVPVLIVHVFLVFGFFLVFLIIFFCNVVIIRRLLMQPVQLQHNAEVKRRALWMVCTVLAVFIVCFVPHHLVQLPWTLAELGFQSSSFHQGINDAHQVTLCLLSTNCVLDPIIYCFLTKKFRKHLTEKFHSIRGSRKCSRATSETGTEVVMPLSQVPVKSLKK
Procedure: The binding assay was done in 400 μl polyethylene microcentrifuge tubes (Beckman) containing 50 μl of an oil mixture of 2 parts Siliconol AR200 (Serva): 1 part Silicone Fluid (Arthur H. Thomas). Buffer, standards, or analogs (150 μl total volume) were added to the tubes. Radiolabelled ^3 H-PAF (50 μl) was then added to the tubes. The reaction was started by the addition of 50 μl of dog platelets (2×10^7 platelets). The tubes were capped, inverted several times to mix, and incubated for 10 minutes at room temperature. The platelets were separated from the incubation mixture by centrifuging 1 minute in a Beckman Microfuge B centrifuge. The tip of the microfuge tube was cut off, and the platelets were washed out of the tip with 200 μl of 50% methanol (Burdick and Jackson). Aquasol (NEN, 10 ml) was added and the radioactivity in the samples was determined using an LS 8100 Beckman liquid scintillation counter linked to a Techtran tape recorder. Data was processed through an in-house computer system. Alternatively, radioactivity was determined using a Searle Mark III liquid scintillation counter linked to a Iso-Data microprocessor.
(b) Preparation of Platelets
Blood was collected from anesthesized or unanesthesized dogs into 50 ml plastic centrifuge tubes containing 3.8% sodium citrate as the anticoagulant (1 volume of citrate/9 volumes of blood). The red cells were removed by centrifugation for 15 minutes at 600 rpm (100-125 g) at room temperature. An aliquot of the supernatant platelet rich plasma (PRP) was saved for cell counting and the remainder was acidified to PH 6.5 with 0.15M citric acid. The platelet pellet was obtained after a 10 minute centrifugation at 2000 rpm (1000 g) at room temperature. Washed platelets were prepared by resuspending the platelet pellet once with PBS containing 1 mM EDTA, centrifuging as noted, and then resuspending the platelets in 0.1% BSA-PBS. An aliquot of the washed platelets was counted. Platelets used for binding assays were diluted to 2×10^7 platelets/assay tube (4×10^8 platelets/ml). Platelet counting was done using a Royco Cell-Crit 921.

[2] = test system: PAF-Induced Bronchoconstriction; experiment: PAF Induced Bronchoconstriction Assay; type: in vivo, guinea pig; settings: for inhibition in vivo at 50 mg/kg: Cavia porcellus, po, 2-hour pretreatment, read-out: Percent Inhib. of PAF-Induced Bronchoconstriction, 50 mg/Kg p.o.; for Percent Inhib. of PAF-Induced Bronchoconstriction, mg/Kg i.v.: i.v. (dose not given), 1 minute pretreatment, PAF 1.0 μg/kg i.v.
Procedure: PAF Induced Bronchoconstriction Assay
Male animals (Hartlet Strain 400-500 g) were anesthetized with urethane (2 g/kg. i.p.). Each animals' trachea was cannulated and the guinea pigs were repirated using a Harvard small animal rodent respirator (3.0 cc stroke volume, 40 breaths per min.). Tracheal pressure was recorded from a cannula inserted in the trachea and connected to a Statham Pressure Transducer.
The jugular vein was cannulated for administering compounds. Spontaneous breathing was arrested with succinylcholine (1.2 mg/kg. i.v.) administered 2 minutes prior to intravenous injection of platelet activating factor (PAF).
For, the intravenous testing, the guinea pig is given a 5-minute pretreatment with propranolol at a dose of 0.1 mg/kg intravenously. The test compound is administered with a 1 minute pretreatment prior to intravenous challenge with PAF. The animal is than challenged with a 1.0 μg/kg intravenous dose of PAF and the change is tracheal pressure is measured.
For the oral testing, the procedure includes a 2-hour pretreatment period with the test compound administered through an oral gavage tube. Propranolol or succinylcholine and PAF are administered intravenously, and the change in tracheal pressure measured.
The change is tracheal pressure is determined by subtracting the steady state baseline achieved after administration of succinylcholine from the peak bronchoconstriction seen after challenge with PAF. The mean is calculated for each test compound and compared to the mean of the control animals to give the percent inhibition of bronchoconstriction. The standard error is calcuated as the standard error of the mean.

[3] = dog platelets, 3H-PAF, 10 minutes at room temperature, read-out: Inhib of PAF Binding IC50

Row | IC50 [1, 3] [nM] | SMILES | inhibition in vivo at 50 mg/kg ([2]; 50 mg/Kg p.o.) [%] | Percent Inhib. of PAF-Induced Bronchoconstriction, mg/Kg i.v. [2] [%] | IC50 [1] [nM] | Percent Inhib. of PAF-Induced Bronchoconstriction, 50 mg/Kg p.o. (6 hr) ([2]; 50 mg/Kg p.o., (6 hr)) [%] | Percent Inhib. of PAF-Induced Bronchoconstriction, 50 mg/Kg p.o. (8 hr) ([2]; 50 mg/Kg p.o.) [%]
1 | 55 | COc1ccc(C(=C/C=C/C(=O)NCCCCc2cccnc2)c2ccc(OC)c(OC)c2)cc1OC [(E)-5,5-bis(3,4-Dimethoxyphenyl)-N-[4-(3-pyridinyl)butyl]-2,4-pentadienamide] | 71 ± 2 | 78 ± 6 | – | – | –
2 | – | O=C(/C=C/C=C(c1cccc([N+](=O)[O-])c1)c1cccc([N+](=O)[O-])c1)NCCCCc1cccnc1 [(E)-5,5-bis(3-nitrophenyl)-N-[4-(3-pyridinyl)butyl)-2,4-pentadienamide] | – | 18 ± 2 | 115 | – | –
3 | 100 | COc1ccc(C(=C/C=C/C(=O)NCCCc2ccncc2)c2ccc(OC)cc2)cc1 [(E)-5,5-bis(4-methoxyphenyl)-N-[3-(4-pyridinyl)propyl]-2,4-pentadienamide] | – | 8 ± 12 | – | – | –
4 | 250 | COc1ccc(C(=C/C=C/C(=O)Nc2ccc(Cc3cccnc3)cc2)c2ccc(OC)cc2)cc1 [(E)-5,5-bis(4-methoxyphenyl)-N-[4-(3pyridinylmethyl)phenyl]-2,4-pentadienamide] | – | 3 ± 7 | – | – | –
5 | 1000 | COc1ccc(C(=C/C=C/C(=O)NCCCCCc2ccccn2)c2ccc(OC)cc2)cc1 [(E)-5,5-bis(4-methoxyphenyl)-N-[5-(2-pyridinyl)pentyl]-2,4-pentadienamide] | – | 27 ± 6 | – | – | –
6 | 500 | COc1ccc(C(=C/C=C/C(=O)NC(CCCc2cccnc2)CCCc2cccnc2)c2ccc(OC)cc2)cc1 [(E)-5,5-bis-(4-methoxyphenyl)-N-[1-[3-(3-pyridinyl)propyl]-4-(3-pyridinyl)-butyl]-2,4-pentadienamide] | – | 50 ± 15 | – | – | –
7 | 10 | COc1ccc(C(=C/C=C/C(=O)Nc2ccc(-c3cccnc3)cc2)c2ccc(OC)cc2)cc1 [(E)-5,5-bis-(4-methoxyphenyl)-N-[4-(3-pyridinyl)phenyl]-2,4-pentadienamide] | 84 ± 8 | 97 ± 1 | – | – | –
8 | 45 | COc1ccc(/C(=C\C=C\C(=O)NCCCCc2cccnc2)c2ccccc2OC)cc1 [(E,E)-5-(2-methoxyphenyl)-5-(4-methoxyphenyl)-N-[4-(3-pyridinyl)butyl]-2,4-pentadienamide] | 21 ± 7 | 80 ± 5 | – | – | –
9 | 25 | COc1ccc(/C(=C\C=C\C(=O)NCCCCc2cccnc2)c2cccnc2)cc1 [(E,E)-5-(4-methoxyphenyl)-5-(3-pyridinyl)-N-[4-(3-pyridinyl)butyl]-2,4-pentadienamide] | 85 ± 8 | 97 ± 0.6 | – | – | –
10 | 15 | CCCCC/C(=C\C=C\C(=O)NCCCCc1cccnc1)c1ccc(OC)cc1 [(E,E)-5-(4-methoxyphenyl)-N-[4-(3-pyridinyl)butyl]-2,4-decadienamide] | 26 ± 2 | 99 ± 1 | – | – | –
11 | 105 | CCCCC/C(=C/C=C/C(=O)N[C@H](C)CCCc1cccnc1)c1cccc(F)c1 [[R-(2E,4Z)]-5-(3-fluorophenyl)-N-[1-methyl-4-(3-pyridinyl)butyl]-2,4-decadienamide] | – | 93 ± 1 | – | – | –
12 | 40 | COc1ccc(/C(=C\C=C\C(=O)N[C@H](C)CCCc2cccnc2)C(C)C)cc1 [[R-(2E,4Z)]-5-(4-methoxyphenyl)-6-methyl-N-[1-methyl-4-(3-pyridinyl)butyl]-2,4-heptadienamide] | 71 ± 14 | 89 ± 3 | – | – | –
13 | 16 | COc1ccc(/C(=C/C=C/C(=O)N[C@H](C)CCCc2cccnc2)c2cccs2)cc1 [[R-(2E,4Z)]-5-(4-methoxyphenyl)-N-[1-methyl-4-(3-pyridinyl)butyl]-5-(2-thienyl)-2,4-pentadienamide] | 96 ± 2 | 97 ± 1 | – | 27 ± 6 | –
14 | 70 | COc1ccc(/C(=C\C=C\C(=O)N[C@H](C)CCCc2cccnc2)C2CC2)cc1 [[R-(2E,4Z)]-5-cyclopropyl-5-(4-methoxyphenyl)-N-1-methyl-4-(3-pyridinyl)butyl]-2,4-pentadienamide] | 63 ± 19 | 85 ± 4 | – | – | –
15 | 50 | COc1ccc(C(=C/C=C/C(=O)N[C@H](C)CCCc2cccnc2)c2ccc(OC)c(OC)c2)cc1OC [[R-(E)]-5,5-bis(3,4-dimethoxyphenyl)-N-[1-methyl-4-(3-pyridinyl)butyl]-2,4-pentadienamide] | 66 ± 19 | 99 ± 1 | – | – | –
16 | 250 | Cc1ccc(C(=C/C=C/C(=O)N[C@H](C)CCCc2cccnc2)c2ccc(C)cc2)cc1 [[R-(E)]-5,5-bis(4-methylphenyl)-N-[1-methyl-4-(3-pyridinyl)butyl]-2,4-pentadienamide] | 91 ± 7 | 97 ± 3 | – | – | 14 ± 16
17 | 120 | CC[C@H](CCCc1cccnc1)NC(=O)/C=C/C=C(c1ccc(OC)cc1)c1ccc(OC)cc1 [[R-(E)]-N-[1-ethyl-4-(3-pyridinyl)butyl]-5,5-bis(4-methoxyphenyl)-2,4-pentadienamide] | 99 ± 1 | 99 ± 0.4 | – | – | 85 ± 12
18 | 100 | CCCCCC(=C/C=C/C(=O)N[C@H](C)CCCc1cccnc1)CCCCC [[R-(E)]-N-[1-methyl-4-(3-pyridinyl)butyl]-5-pentyl-2,4-decadienamide] | 4 ± 4 | 78 ± 7 | – | – | –
19 | 6 | CCCCC/C(=C\C=C\C(=O)N[C@H](C)CCCc1cccnc1)c1ccc(OC)c(OC)c1 [[R-(E,E)]-5-(3,4-dimethoxyphenyl)-N-[1-methyl-4-(3-pyridinyl)butyl]-2,4-decadienamide] | – | 99 ± 0.4 | – | – | –
20 | 30 | CCCCC/C(=C\C=C\C(=O)N[C@H](C)CCCc1cccnc1)c1cccc(F)c1 [[R-(E,E)]-5-(3-fluorophenyl)-N-[1-methyl-4-(3-pyridinyl)butyl]-2,4-decadienamide] | – | 93 ± 0.9 | – | – | –
21 | 15 | CCCC/C(=C\C=C\C(=O)N[C@H](C)CCCc1cccnc1)c1cccc(OC)c1 [[R-(E,E)]-5-(3-methoxyphenyl)-N-[1-methyl-4-(3-pyridinyl)butyl]-2,4-nonadienamide] | – | 91 ± 5 | – | – | –
22 | 40 | CCCCC/C(=C\C=C\C(=O)N[C@H](C)CCCc1cccnc1)c1ccc(F)cc1 [[R-(E,E)]-5-(4-fluorophenyl)-N-[1-methyl-4-(3-pyridinyl)butyl]-2,4-decadienamide] | – | 95 ± 1 | – | – | –
